In PMC6825211 (Nature Communications, 2019):
Several values for one entry are separate records, joined by “and”; a condition that tells them apart may be missing. Identical values can stand only once.

What was measured:
PDK1 = PDK1 (Homo sapiens, UniProt O15530); assay: Nanosyn kinase profiling, mobility shift assay; details: read-out: % inhibition by neratinib
MLD–STZ C57BL/6J mice [1] = assay: MLD–STZ model: intraperitoneal insulin tolerance test (ipITT); assay type: in vivo, mouse; set-up: ipITT glucose: unit not given here
Experimental: (§1) C57Bl/6J mice were injected with 40 mg/kg streptozotocin or citrate buffer for 5 consecutive days. […] In d, basal glucose values were normalized to 100%. e Insulin secretion measured from retro-orbital blood draw during an ipGTT measured before (0 min) and 15 min after glucose injection; data are expressed as the ratio of secreted insulin at 15 min/0 min (stimulatory index). f The ratio of secreted insulin and glucose is calculated at fed state. g–i Mice were killed at day 35. g β-cell mass (given as percentage of the whole pancreatic section from ten sections spanning the width of the pancreas) and quantitative analyses from triple staining for h TUNEL or i Ki67, insulin, and DAPI expressed as percentage of TUNEL- or Ki67-positive β-cells ±SEM. An average number of 2331 (h), or 26369 (i) β-cells were counted. n = 9 mice/group for (a); n = 4–12 for (b); n = 5–15 for (c) and (d); n = 12–19 for (e); n = 8–14 for (f); n = 4–9 for (g); n = 4–11 for (h); and n = 6–11 mice/groupfor (i); all from three independent experiments).
For intraperitoneal glucose tolerance tests, mice were fasted 12 h overnight and injected i.p. with glucose (40%; B.Braun, Melsungen, Germany) at a dose of 1 g/kg body weight. Blood samples were obtained at time points 0, 15, 30, 60, 90, and 120 min for glucose measurements by using a Glucometer. For i.p. insulin tolerance tests, mice were injected with 0.75 U/kg body weight recombinant human insulin (Novolin, Novo Nordisk) after 4–5-h fasting, and glucose concentration was determined with the Glucometer. Insulin secretion was measured before (0 min) and after (15 and 30 min) i.p. injection of glucose (2 g/kg) and measured by using ultrasensitive mouse Elisa kit (ALPCO Diagnostics, Salem, NH).

MLD–STZ C57BL/6J mice [2] = assay: MLD–STZ model: insulin secretion during ipGTT (stimulatory index); assay type: in vivo, mouse; details: glucose-stimulated, i.p.
Experimental: as §1
For intraperitoneal glucose tolerance tests, mice were fasted 12 h overnight and injected i.p. with glucose (40%; B.Braun, Melsungen, Germany) at a dose of 1 g/kg body weight. […] Insulin secretion was measured before (0 min) and after (15 and 30 min) i.p. injection of glucose (2 g/kg) and measured by using ultrasensitive mouse Elisa kit (ALPCO Diagnostics, Salem, NH).

MLD–STZ C57BL/6J mice [3] = assay: MLD–STZ model: β-cell mass; assay type: in vivo, mouse; set-up: BCM: unit not given here
Experimental: as §1
For morphometric data, ten sections (spanning the width of the pancreas) per mouse were analyzed. Pancreatic tissue area and insulin-positive area were determined by computer-assisted measurements by using a Nikon MEA53200 (Nikon GmbH, Dusseldorf, Germany) microscope, and images were acquired by using NIS-Elements software (Nikon). β-cell mass was obtained by multiplying the β-cell fraction by the weight of the pancreas.

[4] = test system: obese diabetic Lepr db/db mice; assay: db/db model: β-cell proliferation (Ki67); assay type: in vivo, mouse; details: dbdb mice
[5] = Pharmacokinetic study, single i.p. dose; details: for AUC(0-inf): AUCINF
MST family members = test system: MST family members; set-up: method as in PMID 22037378; details: cited from earlier work
DYRK1A = DYRK1A (Homo sapiens, UniProt Q13627); assay: Nanosyn kinase profiling, mobility shift assay; details: read-out: % inhibition by neratinib
PI3-KINASE-ALPHA = PI3-KINASE-ALPHA (Homo sapiens, UniProt P42336); assay: Nanosyn kinase profiling, mobility shift assay; details: read-out: % inhibition by neratinib
PI3-KINASE-ALPHA, sequence (P42336 whole entry): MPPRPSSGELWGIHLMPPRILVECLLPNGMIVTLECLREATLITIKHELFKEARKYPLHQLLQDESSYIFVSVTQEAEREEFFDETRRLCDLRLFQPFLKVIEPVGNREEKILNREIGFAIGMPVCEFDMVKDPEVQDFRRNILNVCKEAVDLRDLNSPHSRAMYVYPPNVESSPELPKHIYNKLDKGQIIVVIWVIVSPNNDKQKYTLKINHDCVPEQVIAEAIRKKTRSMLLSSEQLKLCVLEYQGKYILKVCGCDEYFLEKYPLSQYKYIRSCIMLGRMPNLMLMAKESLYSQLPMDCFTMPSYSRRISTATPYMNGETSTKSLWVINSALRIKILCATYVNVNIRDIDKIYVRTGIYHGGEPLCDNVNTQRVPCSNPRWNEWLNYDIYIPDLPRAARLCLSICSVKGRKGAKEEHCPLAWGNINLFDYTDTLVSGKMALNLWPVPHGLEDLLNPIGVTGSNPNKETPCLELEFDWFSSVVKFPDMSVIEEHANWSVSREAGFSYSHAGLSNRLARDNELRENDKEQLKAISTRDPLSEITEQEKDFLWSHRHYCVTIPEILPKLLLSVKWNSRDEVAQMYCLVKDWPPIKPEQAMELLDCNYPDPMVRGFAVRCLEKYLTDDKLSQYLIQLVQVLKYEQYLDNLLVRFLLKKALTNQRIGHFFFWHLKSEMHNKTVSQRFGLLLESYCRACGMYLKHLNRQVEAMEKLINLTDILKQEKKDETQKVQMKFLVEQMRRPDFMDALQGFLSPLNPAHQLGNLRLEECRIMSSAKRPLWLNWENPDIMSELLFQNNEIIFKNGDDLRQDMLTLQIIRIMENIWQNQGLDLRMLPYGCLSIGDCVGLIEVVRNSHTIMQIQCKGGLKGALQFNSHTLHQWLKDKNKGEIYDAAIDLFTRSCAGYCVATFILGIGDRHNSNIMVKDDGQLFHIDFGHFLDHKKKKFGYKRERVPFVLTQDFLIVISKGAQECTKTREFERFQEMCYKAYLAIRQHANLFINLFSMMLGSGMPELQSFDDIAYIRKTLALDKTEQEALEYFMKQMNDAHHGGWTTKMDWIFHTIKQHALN
PI3-KINASE-ALPHA, sequence (P27986 whole entry partner): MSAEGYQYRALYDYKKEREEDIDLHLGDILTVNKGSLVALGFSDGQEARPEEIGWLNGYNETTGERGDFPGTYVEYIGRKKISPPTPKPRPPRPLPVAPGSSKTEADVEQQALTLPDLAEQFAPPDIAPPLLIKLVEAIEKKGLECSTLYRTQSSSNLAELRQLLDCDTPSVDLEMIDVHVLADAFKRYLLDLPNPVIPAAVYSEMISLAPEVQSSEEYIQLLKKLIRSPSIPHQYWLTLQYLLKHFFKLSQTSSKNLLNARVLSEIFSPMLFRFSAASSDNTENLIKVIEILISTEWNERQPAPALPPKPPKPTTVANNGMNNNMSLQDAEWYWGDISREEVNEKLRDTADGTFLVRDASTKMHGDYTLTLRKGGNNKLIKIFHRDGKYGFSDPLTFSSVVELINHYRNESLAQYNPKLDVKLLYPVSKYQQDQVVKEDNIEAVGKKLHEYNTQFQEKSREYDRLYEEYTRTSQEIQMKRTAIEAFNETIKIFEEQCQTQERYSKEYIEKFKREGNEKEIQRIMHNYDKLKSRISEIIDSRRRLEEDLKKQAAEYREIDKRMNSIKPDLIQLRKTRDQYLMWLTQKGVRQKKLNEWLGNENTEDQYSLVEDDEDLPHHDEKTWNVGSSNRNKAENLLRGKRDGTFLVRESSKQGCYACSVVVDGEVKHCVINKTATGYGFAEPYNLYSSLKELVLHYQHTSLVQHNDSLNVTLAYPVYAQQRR

P38-ALPHA = P38-ALPHA (Homo sapiens, UniProt Q16539); assay: Nanosyn kinase profiling, mobility shift assay; details: read-out: % inhibition by neratinib
P38-ALPHA, sequence (Q16539 whole entry): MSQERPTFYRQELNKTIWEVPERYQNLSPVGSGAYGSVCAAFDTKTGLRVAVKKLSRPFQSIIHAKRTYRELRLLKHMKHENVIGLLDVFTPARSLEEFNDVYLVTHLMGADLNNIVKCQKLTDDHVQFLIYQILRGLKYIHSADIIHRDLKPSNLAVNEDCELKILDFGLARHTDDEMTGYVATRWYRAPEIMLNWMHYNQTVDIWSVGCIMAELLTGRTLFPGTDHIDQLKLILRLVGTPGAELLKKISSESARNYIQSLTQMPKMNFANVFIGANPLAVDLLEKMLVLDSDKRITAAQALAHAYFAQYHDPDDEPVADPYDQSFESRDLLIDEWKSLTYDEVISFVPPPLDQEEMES

[6] = test system: isolated islets from db/db mice; assay: Ex vivo β-cell apoptosis (TUNEL) in isolated db/db islets; assay type: cell-based, mouse; details: for TUNEL%: dbdb islets with Nera
[7] = 5 mg/kg IP, individual animals 1-3

PDK1, sequence (O15530 whole entry): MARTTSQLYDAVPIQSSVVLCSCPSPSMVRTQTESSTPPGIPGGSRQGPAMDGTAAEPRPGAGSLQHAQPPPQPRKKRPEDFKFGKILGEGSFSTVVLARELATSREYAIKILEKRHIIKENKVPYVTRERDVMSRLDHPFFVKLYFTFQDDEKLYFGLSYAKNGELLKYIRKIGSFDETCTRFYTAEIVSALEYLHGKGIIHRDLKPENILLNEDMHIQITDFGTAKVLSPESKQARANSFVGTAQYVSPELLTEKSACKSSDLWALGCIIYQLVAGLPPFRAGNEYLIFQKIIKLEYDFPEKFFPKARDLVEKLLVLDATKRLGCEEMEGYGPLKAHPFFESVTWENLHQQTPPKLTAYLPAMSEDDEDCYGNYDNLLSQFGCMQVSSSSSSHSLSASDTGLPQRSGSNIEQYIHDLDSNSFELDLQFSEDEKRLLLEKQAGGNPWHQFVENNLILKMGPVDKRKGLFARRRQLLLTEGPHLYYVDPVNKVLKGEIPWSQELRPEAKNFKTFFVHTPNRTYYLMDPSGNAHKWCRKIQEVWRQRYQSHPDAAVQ

With `CCOc1cc2ncc(C#N)c(Nc3ccc(OCc4ccccn4)c(Cl)c3)c2cc1NC(=O)/C=C/CN(C)C` [neratinib] the inhibition at 10 µM (PDK1) was 6%, the “insulin sensitivity (normalized glucose levels)” value (MLD–STZ C57BL/6J mice [1]; MLD–STZ study) was “neither neratinib nor STZ had a significant effect” and the ipITT glucose (MLD–STZ C57BL/6J mice [1]; NeraCtr, 0 min, Mean) was 130.4. For the same compound, the “ipITT glucose normalized to 100, MEAN” value (MLD–STZ C57BL/6J mice [1]; NeraCtr, 0 min after ins) was 100, the ipITT glucose (MLD–STZ C57BL/6J mice [1]; NeraCtr, 0 min after ins, individual mice) was 135 and 120 and 117 and 132 and 148 and the ipITT glucose (MLD–STZ C57BL/6J mice [1]; NeraCtr, 15 min, Mean) was 84.6. The “ipITT glucose normalized to 100, MEAN” value (MLD–STZ C57BL/6J mice [1]; NeraCtr, 15 min after ins) was 64.88, the ipITT glucose (MLD–STZ C57BL/6J mice [1]; NeraCtr, 15 min after ins, individual mice) was 94 and 83 and 116 and 55 and 75 and the ipITT glucose (MLD–STZ C57BL/6J mice [1]; NeraCtr, 30 min, Mean) was 84.4. For the same compound, the “ipITT glucose normalized to 100, MEAN” value (MLD–STZ C57BL/6J mice [1]; NeraCtr, 30 min after ins) was 64.72, the ipITT glucose (MLD–STZ C57BL/6J mice [1]; NeraCtr, 30 min after ins, individual mice) was 80 and 67 and 123 and 71 and 81 and the ipITT glucose (MLD–STZ C57BL/6J mice [1]; NeraCtr, 60 min, Mean) was 82.8. For the same compound, the “ipITT glucose normalized to 100, MEAN” value (MLD–STZ C57BL/6J mice [1]; NeraCtr, 60 min after ins) was 63.5, the ipITT glucose (MLD–STZ C57BL/6J mice [1]; NeraCtr, 60 min after ins, individual mice) was 84 and 80 and 121 and 48 and 81 and the ipITT glucose (MLD–STZ C57BL/6J mice [1]; NeraCtr, 90 min, Mean) was 89. For the same compound, the “ipITT glucose normalized to 100, MEAN” value (MLD–STZ C57BL/6J mice [1]; NeraCtr, 90 min after ins) was 68.25, the ipITT glucose (MLD–STZ C57BL/6J mice [1]; NeraCtr, 90 min after ins, individual mice) was 90 and 87 and 129 and 52 and the ipITT glucose (MLD–STZ C57BL/6J mice [1]; NeraSTZ, 0 min, Mean) was 286.636. For the same compound, the “ipITT glucose normalized to 100, MEAN” value (MLD–STZ C57BL/6J mice [1]; NeraSTZ, 0 min after ins) was 100, the ipITT glucose (MLD–STZ C57BL/6J mice [1]; NeraSTZ, 0 min after ins, individual mice) was 462 and 369 and 228 and 215 and 295 and 196 and 335 and 337 and 212 and 296 and 208 and the ipITT glucose (MLD–STZ C57BL/6J mice [1]; NeraSTZ, 15 min, Mean) was 267.636. The “ipITT glucose normalized to 100, MEAN” value (MLD–STZ C57BL/6J mice [1]; NeraSTZ, 15 min after ins) was 93.37, the ipITT glucose (MLD–STZ C57BL/6J mice [1]; NeraSTZ, 15 min after ins, individual mice) was 244 and 341 and 151 and 180 and 262 and 206 and 353 and 362 and 225 and 333 and 287 and the ipITT glucose (MLD–STZ C57BL/6J mice [1]; NeraSTZ, 30 min, Mean) was 187.273. For the same compound, the “ipITT glucose normalized to 100, MEAN” value (MLD–STZ C57BL/6J mice [1]; NeraSTZ, 30 min after ins) was 65.33, the ipITT glucose (MLD–STZ C57BL/6J mice [1]; NeraSTZ, 30 min after ins, individual mice) was 114 and 186 and 102 and 127 and 207 and 173 and 304 and 307 and 97 and 216 and 227 and the ipITT glucose (MLD–STZ C57BL/6J mice [1]; NeraSTZ, 60 min, Mean) was 132.545. The “ipITT glucose normalized to 100, MEAN” value (MLD–STZ C57BL/6J mice [1]; NeraSTZ, 60 min after ins) was 46.24, the ipITT glucose (MLD–STZ C57BL/6J mice [1]; NeraSTZ, 60 min after ins, individual mice) was 123 and 110 and 79 and 95 and 108 and 169 and 231 and 87 and 198 and 150 and the ipITT glucose (MLD–STZ C57BL/6J mice [1]; NeraSTZ, 90 min, Mean) was 132.455. The “ipITT glucose normalized to 100, MEAN” value (MLD–STZ C57BL/6J mice [1]; NeraSTZ, 90 min after ins) was 46.21, the ipITT glucose (MLD–STZ C57BL/6J mice [1]; NeraSTZ, 90 min after ins, individual mice) was 174 and 97 and 79 and 135 and 116 and 100 and 155 and 203 and 103 and 136 and 159 and the “impaired insulin secretion in STZ-treated mice” value (MLD–STZ C57BL/6J mice [2]) was “significantly improved”. The BCM (MLD–STZ C57BL/6J mice [3]; NeraCtr group (no STZ), MEAN) was 1.179, the BCM (MLD–STZ C57BL/6J mice [3]; NeraCtr group (no STZ), individual mice) was 1.212 and 1.511 and 1.035 and 0.9571 and the BCM (MLD–STZ C57BL/6J mice [3]; NeraSTZ group, MEAN) was 0.6212. The BCM (MLD–STZ C57BL/6J mice [3]; NeraSTZ group, individual mice) was 1.314 and 0.4366 and 0.7768 and 0.269 and 0.7149 and 0.2555 and 0.5691 and 0.3836 and 0.8706, the β-cell mass (MLD–STZ C57BL/6J mice [3]; STZ mice, day 35) was “restored β-cell mass” and the Ki67%/ mouse ([4]; Mean) was 1.047%. For the same compound, the Ki67%/ mouse ([4]; individual mice) was 0.4896% and 1.365% and 0.6515% and 1.681%, the Cl ([5]; 5 mg/kg IP, AVERAGE n=3) was 263.8 mL/min/kg and the VD ([5]; 5 mg/kg IP, AVERAGE n=3) was 58.9 L/kg. For the same compound, the AUC0-24 [5, 7] was 1.9671 µM·h and 2.1252 µM·h, the AUCINF [5, 7] was 2.1537 µM·h and 2.2985 µM·h and the AUCLAST [5, 7] was 1.9671 µM·h and 2.1252 µM·h. The Cl [5, 7] was 253.1 mL/min/kg and 277.9 mL/min/kg and 260.4 mL/min/kg, the Cmax [5, 7] was 557 nM and 623 nM and the MRT [5, 7] was 2.3 h. For the same compound, the Tmax [5, 7] was 1.0 h, the VD [5, 7] was 86.9 L/kg and 46.7 L/kg and 43.1 L/kg and the t1/2 [5, 7] was 4.0 hr and 1.9 hr (2×). The maximum concentration ([5]; 5 mg/kg single i.p. dose, plasma, fasted mice) was 306 ng/mL, the AUC(0-t) ([5]; mouse, plasma, ip, 5 mg/kg, AUC0-24, 5 mg/kg IP, AVERAGE n=3) was 1.9 µM·h and the AUC(0-t) ([5]; mouse, plasma, ip, 5 mg/kg, AUC0-24, 5 mg/kg IP, individual animals 1-3) was 1.62 µM·h. It also gave an AUC(0-inf) ([5]; mouse, plasma, ip, 5 mg/kg, 5 mg/kg IP, AVERAGE n=3) of 2.27 µM·h, an AUC(0-inf) ([5]; mouse, plasma, ip, 5 mg/kg, 5 mg/kg IP, individual animals 1-3) of 2.36 µM·h and an AUC(0-t) ([5]; mouse, plasma, ip, 5 mg/kg, AUCLAST, 5 mg/kg IP, AVERAGE n=3) of 1.9 µM·h. It also gave an AUC(0-t) ([5]; mouse, plasma, ip, 5 mg/kg, AUCLAST, 5 mg/kg IP, individual animals 1-3) of 1.62 µM·h, a Cmax ([5]; mouse, plasma, ip, 5 mg/kg, Cmax, 5 mg/kg IP, AVERAGE n=3) of 549 nM and a Cmax ([5]; mouse, plasma, ip, 5 mg/kg, Cmax, 5 mg/kg IP, individual animals 1-3) of 469 nM. The MRT ([5]; mouse, plasma, ip, 5 mg/kg, MRT, 5 mg/kg IP, AVERAGE n=3) was 2.4 h, the MRT ([5]; mouse, plasma, ip, 5 mg/kg, MRT, 5 mg/kg IP, individual animals 1-3) was 2.7 h and the Tmax ([5]; mouse, plasma, ip, 5 mg/kg, Tmax, 5 mg/kg IP, AVERAGE n=3) was 0.7 h. The Tmax ([5]; mouse, plasma, ip, 5 mg/kg, Tmax, 5 mg/kg IP, individual animals 1-3) was 0.5 h, the half-life ([5]; mouse, plasma, ip, 5 mg/kg, t1/2, 5 mg/kg IP, AVERAGE n=3) was 2.6 h and the Tmax ([5]; mouse, plasma, ip, 5 mg/kg, time of maximum concentration post dosing, 5 mg/kg single i.p. dose, average) was 0.67 h. The “activity on MST family members” value (MST family members) was “potent activity”, the inhibition at 10 µM (DYRK1A) was 3% and the inhibition at 10 µM (PI3-KINASE-ALPHA) was 18%. For the same compound, the inhibition at 10 µM (P38-ALPHA) was 15%, the “β-cell survival in db/db islets ex vivo” value ([6]; 10 μM, 24 h) was “fully restored β-cell survival” and the TUNEL% ([6]; MEAN) was 1.158%. For the same compound, the TUNEL% ([6]; individual replicates) was 1.875% and 1.213% and 0.7124% and 0.9025% and 0.3448% and 1.9025%.
